Test results published in the NIST ThermoML archive (doi:10.1016/j.jct.2014.07.012).

Assay: mn = molality of the nth substance listed, in mol/kg
Settings: 100 kPa, Liquid; for speed of sound: Frequency=3 MHz, Sing-around technique in a fixed-path interferometer; for mass density: Vibrating tube method

NC(N)=O [urea] + O
Settings	mass density, 288.15 K [kg/m3]	mass density, 293.15 K [kg/m3]	mass density, 298.15 K [kg/m3]	mass density, 303.15 K [kg/m3]	mass density, 308.15 K [kg/m3]	speed of sound, 288.15 K [m/s]	speed of sound, 293.15 K [m/s]	speed of sound, 298.15 K [m/s]	speed of sound, 303.15 K [m/s]	speed of sound, 308.15 K [m/s]
m1 = 0.0504	999.922	999.019	997.847	996.442	994.816	1468.2	1483.9	1498	1510.3	1520.9
m1 = 0.0807	1000.43	999.511	998.329	996.911	995.281	1469.1	1484.8	1498.8	1511	1521.6
m1 = 0.1107	1000.92	999.994	998.802	997.378	995.738	1470	1485.6	1499.6	1511.8	1522.2
m1 = 0.151	1001.58	1000.64	999.436	997.998	996.351	1471.3	1486.8	1500.6	1512.7	1523.1
m1 = 0.2005	1002.39	1001.43	1000.21	998.757	997.097	1472.8	1488.1	1501.9	1513.9	1524.2
m1 = 0.2512	1003.21	1002.23	1000.99	999.529	997.855	1474.1	1489.5	1503.1	1515	1525.3

CCN(CC)C(N)=O [1,1-diethylurea] + O
Settings	mass density, 288.15 K [kg/m3]	mass density, 293.15 K [kg/m3]	mass density, 298.15 K [kg/m3]	mass density, 303.15 K [kg/m3]	mass density, 308.15 K [kg/m3]	speed of sound, 288.15 K [m/s]	speed of sound, 293.15 K [m/s]	speed of sound, 298.15 K [m/s]	speed of sound, 303.15 K [m/s]	speed of sound, 308.15 K [m/s]
m1 = 0.0535	999.376	998.462	997.288	995.875	994.243	–	–	–	–	–
m1 = 0.0856	999.546	998.62	997.435	996.012	994.369	1474.9	1490.4	1503.9	1515.7	1525.8
m1 = 0.1181	999.725	998.786	997.589	996.154	994.501	1478	1493.2	1506.6	1518.1	1528
m1 = 0.1603	999.959	999.002	997.788	996.338	994.672	1482	1496.8	1509.9	1521.2	1530.8
m1 = 0.2142	1000.27	999.288	998.052	996.585	994.898	1487	1501.4	1514.1	1525	1534.3
m1 = 0.2689	1000.59	999.586	998.328	996.837	995.135	1491.9	1506	1518.2	1528.8	1537.8
m1 = 0.3254	1000.93	999.905	998.628	997.108	995.381	1496.9	1510.3	1522.2	1532.6	1541.3

CN(C)C(N)=O [N,N-dimethylurea] + O
Settings	mass density, 288.15 K [kg/m3]	mass density, 293.15 K [kg/m3]	mass density, 298.15 K [kg/m3]	mass density, 303.15 K [kg/m3]	mass density, 308.15 K [kg/m3]	speed of sound, 288.15 K [m/s]	speed of sound, 293.15 K [m/s]	speed of sound, 298.15 K [m/s]	speed of sound, 303.15 K [m/s]	speed of sound, 308.15 K [m/s]
m1 = 0.0526	999.644	998.733	997.562	996.154	994.527	1469.9	1485.7	1499.7	1511.8	1522.3
m1 = 0.0842	999.97	999.051	997.869	996.454	994.818	1471.8	1487.5	1501.3	1513.4	1523.7
m1 = 0.1149	1000.29	999.36	998.171	996.746	995.103	1473.7	1489.2	1502.9	1514.8	1525
m1 = 0.1572	1000.73	999.785	998.583	997.148	995.495	1476.3	1491.6	1505.1	1516.8	1526.8
m1 = 0.2104	1001.28	1000.32	999.103	997.653	995.988	1479.6	1494.6	1507.8	1519.3	1529.1
m1 = 0.2629	1001.83	1000.85	999.617	998.153	996.474	1482.6	1497.4	1510.4	1521.7	1531.3
m1 = 0.318	1002.4	1001.4	1000.15	998.673	996.98	1485.9	1500.4	1513.2	1524.2	1533.6
